Reference: patent US20210047324A1 (Aptinyx Inc., priority 2018, published 2021)

Columns and labels:
[1] = Microsomal stability (Rat); format: in vitro ADME; settings: after 60 minutes
Description: (§1) Microsomal stability of disclosed compounds was investigated. The following table indicates the percent of compound remaining after 60 minutes.

Plasma stability (Rat) = format: in vitro ADME; settings: after 60 minutes
Description: (§2) Plasma stability of disclosed compounds was investigated. The following table indicates the percent of compound remaining after 60 minutes.

[2] = IV pharmacokinetics in Sprague Dawley rats; format: in vivo; settings: Sprague-Dawley, rat, in vivo, iv, 2 mg/kg, normal saline
Description: Sprague Dawley rats were dosed intravenously using a normal saline formulation containing 2 mg/kg of the compounds identified in the below table. The table below summarizes the results of the IV pharmacokinetics.

[3] = Oral pharmacokinetics in Sprague Dawley rats (plasma, brain, CSF); format: in vivo; settings: rat, 10 mg/kg
Description: In another experiment, Sprague Dawley rats were dosed per os (oral gavage) using a normal saline formulation containing 10 mg/kg of the compounds identified in the table below. Plasma, brain, and CSF samples were analyzed at various time points over a 24 hour period. The table below summarizes the results of the oral pharmacokinetics, where the first three values (Tmax, Cmax and AUClast) are plasma values.

[4] = Microsomal stability (Human); format: in vitro ADME; settings: after 60 minutes
Description: as §1

NMDAR2C = target: T1, NMDAR2C (Homo sapiens, UniProt Q14957); assay: NMDAR agonist assay, [3H]MK-801 binding, NMDAR2C expressing HEK cell membranes; format: biochemical; settings: 50 μM glutamate; relative to 1 mM glycine
T1 construct: expressed in transfected cells; host or cells: HEK cells (membrane extract)
Description: (§3) Assays were conducted as described by Moskal et al., “GLYX-13: a monoclonal antibody-derived peptide that acts as an N-methyl-D-aspartate receptor modulator,” Neuropharmacology, 49, 1077-87, 2005. These studies were designed to determine if the test compounds act to facilitate NMDAR activation in NMDAR2A, NMDAR2B, NMDAR2C or NMDAR2D expressing HEK cell membranes as measured by increases in [^3H]MK-801 binding.
(§4) In the assay, 300 μg of NMDAR expressing HEK cell membrane extract protein was preincubated for 15 minutes at […] in the presence of saturating concentrations of glutamate (50 μM) and varying concentrations of test compound (1×10^−15M-1×10^−7M), or 1 mM glycine. Following the addition of 0.3 μCi of [3H]MK-801 (22.5 Ci/mmol), reactions were again incubated for 15 minutes at 25° C. (nonequilibrium conditions). Bound and free [3H]MK-801 were separated via rapid filtration using a Brandel apparatus.
(§5) In analyzing the data, the DPM (disintegrations per minute) of [3H]MK-801 remaining on the filter were measured for each concentration of test compound or for 1 mM glycine. The DPM values for each concentration of a ligand (N=2) were averaged. The baseline value was determined from the best fit curve of the DPM values modeled using the GraphPad program and the log(agonist) vs. response (three parameters) algorithm was then subtracted from all points in the dataset. The % maximal [^3H]MK-801 binding was then calculated relative to that of 1 mM glycine: all baseline subtracted DPM values were divided by the average value for 1 mM glycine. The EC50 and % maximal activity were then obtained from the best fit curve of the % maximal [3H]MK-801 binding data modelled using the GraphPad program and the log(agonist) vs. response (three parameters) algorithm.
(§6) The tables below summarize the results for the wild type […] NMDAR2A, NMDAR2B, NMDAR2C, and NMDAR2D, and whether the compound is not an agonist (−), is an agonist (+), or is a strong agonist (++), where column A is based on the % maximal [3H]MK-801 binding relative to 1 mM glycine (−=0; <100%=+; and >100%=++); and column B is based on log EC50 values (0=−; ≥1×10^−9 M (e.g., −8)=+; and <1×10^−9 M (e.g., −10)=++).

NMDAR2D [5] = target: T2, NMDAR2D (Homo sapiens, UniProt O15399); assay: NMDAR agonist assay, [3H]MK-801 binding, NMDAR2D expressing HEK cell membranes; format: biochemical; settings: 50 μM glutamate; relative to 1 mM glycine
T2 construct: expressed in transfected cells; host or cells: HEK cells (membrane extract)
Description: as §3, §4, §5, §6

NMDAR2D [6] = target: T3, NMDAR2D (Homo sapiens, UniProt O15399+Q05586); assay: as above; format: biochemical; settings: 50 μM glutamate; read-out: NMDAR2D B: log EC50 (converted)
T3 construct: expressed in transfected cells; host or cells: HEK cells (membrane extract)
Description: as §3, §4, §5, §6

NMDAR2B = target: T4, NMDAR2B (Homo sapiens, UniProt Q13224); assay: NMDAR agonist assay, [3H]MK-801 binding, NMDAR2B expressing HEK cell membranes; format: biochemical; settings: 50 μM glutamate
T4 construct: expressed in transfected cells; host or cells: HEK cells (membrane extract)
Method in brief: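 Membranes from HEK cells (300 μg protein) preincubated 15 min with 50 μM glutamate plus compound (1×10^−15–1×10^−7 M) or 1 mM glycine, then with 0.3 μCi [3H]MK-801 for 15 min at 25° C. (nonequilibrium); filter-bound DPM, baseline-subtracted, expressed as % of 1 mM glycine; EC50 and % maximum from three-parameter fit.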

Plasma stability (Human) = format: in vitro ADME; settings: after 60 minutes
Description: as §2

T4 sequence (Q13224 27-1484, species assumed, other chains not shown): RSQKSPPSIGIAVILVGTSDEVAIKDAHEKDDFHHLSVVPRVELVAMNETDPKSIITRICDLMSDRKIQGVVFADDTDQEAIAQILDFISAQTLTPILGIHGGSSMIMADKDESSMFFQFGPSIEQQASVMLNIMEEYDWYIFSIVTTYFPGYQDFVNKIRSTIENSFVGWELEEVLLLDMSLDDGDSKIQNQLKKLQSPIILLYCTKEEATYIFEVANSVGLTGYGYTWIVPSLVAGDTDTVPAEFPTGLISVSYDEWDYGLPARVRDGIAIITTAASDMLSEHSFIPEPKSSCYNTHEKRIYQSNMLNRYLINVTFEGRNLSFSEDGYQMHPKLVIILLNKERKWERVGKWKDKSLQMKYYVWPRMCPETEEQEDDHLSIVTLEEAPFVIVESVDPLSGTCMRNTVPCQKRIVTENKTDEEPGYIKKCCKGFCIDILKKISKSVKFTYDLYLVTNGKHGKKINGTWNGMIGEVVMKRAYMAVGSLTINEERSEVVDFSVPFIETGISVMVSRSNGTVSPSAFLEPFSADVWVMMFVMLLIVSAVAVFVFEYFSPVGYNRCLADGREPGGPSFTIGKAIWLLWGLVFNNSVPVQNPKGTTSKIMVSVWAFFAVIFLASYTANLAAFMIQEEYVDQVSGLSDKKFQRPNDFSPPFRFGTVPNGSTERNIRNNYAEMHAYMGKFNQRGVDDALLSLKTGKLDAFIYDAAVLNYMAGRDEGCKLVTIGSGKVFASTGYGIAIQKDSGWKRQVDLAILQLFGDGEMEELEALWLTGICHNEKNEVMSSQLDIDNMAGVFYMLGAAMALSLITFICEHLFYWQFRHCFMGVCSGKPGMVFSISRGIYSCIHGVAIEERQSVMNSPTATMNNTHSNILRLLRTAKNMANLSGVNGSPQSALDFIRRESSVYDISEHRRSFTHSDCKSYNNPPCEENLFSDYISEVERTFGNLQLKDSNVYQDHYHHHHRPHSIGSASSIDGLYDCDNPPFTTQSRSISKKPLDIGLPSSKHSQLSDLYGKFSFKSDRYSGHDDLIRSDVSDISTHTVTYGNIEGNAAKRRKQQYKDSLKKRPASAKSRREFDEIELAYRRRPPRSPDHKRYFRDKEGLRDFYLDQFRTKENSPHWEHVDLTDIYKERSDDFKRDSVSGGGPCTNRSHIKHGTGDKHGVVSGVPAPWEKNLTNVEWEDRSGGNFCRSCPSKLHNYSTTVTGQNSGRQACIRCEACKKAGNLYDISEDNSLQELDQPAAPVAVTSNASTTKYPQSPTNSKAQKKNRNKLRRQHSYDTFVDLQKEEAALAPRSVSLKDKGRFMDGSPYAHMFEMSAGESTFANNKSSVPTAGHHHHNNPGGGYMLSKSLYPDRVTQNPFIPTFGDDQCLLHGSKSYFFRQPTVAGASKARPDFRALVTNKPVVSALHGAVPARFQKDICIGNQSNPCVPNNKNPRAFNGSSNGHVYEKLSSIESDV
T3 sequence (O15399 28-1336, species assumed, other chains not shown): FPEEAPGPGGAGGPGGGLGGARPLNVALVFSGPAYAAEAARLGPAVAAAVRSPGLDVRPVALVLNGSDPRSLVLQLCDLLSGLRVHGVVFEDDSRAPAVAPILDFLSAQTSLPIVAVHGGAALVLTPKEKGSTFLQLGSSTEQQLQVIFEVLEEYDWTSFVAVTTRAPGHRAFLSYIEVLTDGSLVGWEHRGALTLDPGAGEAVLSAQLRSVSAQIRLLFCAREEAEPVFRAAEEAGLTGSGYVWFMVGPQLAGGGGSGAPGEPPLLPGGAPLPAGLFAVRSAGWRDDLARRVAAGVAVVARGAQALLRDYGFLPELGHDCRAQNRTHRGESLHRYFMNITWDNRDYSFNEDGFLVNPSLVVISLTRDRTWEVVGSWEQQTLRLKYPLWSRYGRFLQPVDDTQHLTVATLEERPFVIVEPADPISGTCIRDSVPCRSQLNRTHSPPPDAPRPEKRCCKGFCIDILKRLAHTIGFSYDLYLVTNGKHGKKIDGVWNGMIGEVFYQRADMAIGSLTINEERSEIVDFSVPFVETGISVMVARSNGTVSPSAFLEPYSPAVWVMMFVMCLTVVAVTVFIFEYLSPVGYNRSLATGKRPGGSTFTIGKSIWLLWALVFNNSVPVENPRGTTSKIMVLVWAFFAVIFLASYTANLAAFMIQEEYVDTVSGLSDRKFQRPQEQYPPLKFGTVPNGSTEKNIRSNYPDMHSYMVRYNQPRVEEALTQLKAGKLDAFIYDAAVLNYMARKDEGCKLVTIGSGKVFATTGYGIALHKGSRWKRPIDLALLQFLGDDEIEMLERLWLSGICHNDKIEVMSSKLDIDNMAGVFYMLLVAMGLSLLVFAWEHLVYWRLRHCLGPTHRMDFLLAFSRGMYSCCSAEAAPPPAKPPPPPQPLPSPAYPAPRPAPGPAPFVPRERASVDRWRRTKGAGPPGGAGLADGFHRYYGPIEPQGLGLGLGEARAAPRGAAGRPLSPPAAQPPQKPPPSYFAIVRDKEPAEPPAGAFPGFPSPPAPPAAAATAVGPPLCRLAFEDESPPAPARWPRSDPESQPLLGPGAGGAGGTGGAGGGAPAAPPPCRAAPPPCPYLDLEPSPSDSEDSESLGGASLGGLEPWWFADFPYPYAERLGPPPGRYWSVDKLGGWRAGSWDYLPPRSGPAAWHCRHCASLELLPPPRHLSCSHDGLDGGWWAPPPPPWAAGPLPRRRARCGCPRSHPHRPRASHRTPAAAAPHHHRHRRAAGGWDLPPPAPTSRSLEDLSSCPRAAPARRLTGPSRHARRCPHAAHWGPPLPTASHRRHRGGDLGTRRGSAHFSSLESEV
T2 sequence (O15399 28-1336, species assumed, other chains not shown): as above
T1 sequence (Q14957 20-1233, species assumed, other chains not shown): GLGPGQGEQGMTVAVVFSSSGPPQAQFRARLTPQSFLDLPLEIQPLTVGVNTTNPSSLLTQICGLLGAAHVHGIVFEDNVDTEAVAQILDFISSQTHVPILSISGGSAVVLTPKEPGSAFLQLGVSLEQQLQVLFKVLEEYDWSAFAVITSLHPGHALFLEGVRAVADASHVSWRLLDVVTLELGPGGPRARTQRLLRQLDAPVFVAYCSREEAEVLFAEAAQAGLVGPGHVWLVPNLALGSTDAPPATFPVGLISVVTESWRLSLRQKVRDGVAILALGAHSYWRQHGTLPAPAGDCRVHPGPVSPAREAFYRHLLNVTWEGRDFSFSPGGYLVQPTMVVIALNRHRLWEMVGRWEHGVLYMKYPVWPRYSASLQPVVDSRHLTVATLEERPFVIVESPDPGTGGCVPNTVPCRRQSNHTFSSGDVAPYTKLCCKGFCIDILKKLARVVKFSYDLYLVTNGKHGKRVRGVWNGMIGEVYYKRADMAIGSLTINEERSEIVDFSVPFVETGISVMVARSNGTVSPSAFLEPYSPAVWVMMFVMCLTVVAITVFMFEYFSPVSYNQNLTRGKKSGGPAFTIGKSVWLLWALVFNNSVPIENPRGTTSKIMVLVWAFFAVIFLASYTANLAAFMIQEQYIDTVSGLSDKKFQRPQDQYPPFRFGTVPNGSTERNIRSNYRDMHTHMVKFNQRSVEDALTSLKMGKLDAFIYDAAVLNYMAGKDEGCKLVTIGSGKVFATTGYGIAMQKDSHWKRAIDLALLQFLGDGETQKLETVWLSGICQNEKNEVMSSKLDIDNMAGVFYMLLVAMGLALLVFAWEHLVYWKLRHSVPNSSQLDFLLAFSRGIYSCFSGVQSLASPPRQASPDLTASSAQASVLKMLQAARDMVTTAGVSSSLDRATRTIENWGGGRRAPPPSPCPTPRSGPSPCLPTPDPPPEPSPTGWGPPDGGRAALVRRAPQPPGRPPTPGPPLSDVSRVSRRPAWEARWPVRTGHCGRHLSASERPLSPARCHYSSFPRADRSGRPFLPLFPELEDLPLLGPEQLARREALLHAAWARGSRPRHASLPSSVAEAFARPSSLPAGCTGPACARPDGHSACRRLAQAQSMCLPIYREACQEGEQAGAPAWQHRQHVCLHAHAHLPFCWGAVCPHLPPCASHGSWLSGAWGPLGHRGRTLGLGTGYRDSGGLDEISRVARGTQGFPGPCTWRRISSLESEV

Microsomal (Rat): percent of compound remaining [1]: 90% | Plasma (Rat): percent of compound remaining (Plasma stability (Rat)): 100% | AUC(0-t) [2]: 1250 ng·h/mL | clearance [2]: 27 mL/min/kg | half-life [2]: 3.6 h | Cmax ([2]; read-out: Cmax): 1470 ng/mL | Vd ([2]; read-out: Vss): 3.92 L/kg | Tmax ([3]; Sprague-Dawley, po, per os, plasma, read-out: Tmax): 0.5 h | AUC(0-t) ([3]; Sprague-Dawley, plasma, po, per os): 3860 ng·h/mL | bioavailability ([3]; Sprague-Dawley, plasma, po, per os 10 mg/kg): 62% | Cmax ([3]; Sprague-Dawley, plasma, po, per os, plasma, read-out: Cmax): 1960 ng/mL | CSF Cmax ([3]; per os, CSF): 551.3 ng/mL | Brain Cmax ([3]; per os, brain): 3963.2 ng/mL | Microsomal (Human): percent of compound remaining [4]: 94% | NMDAR2C A: % maximal [3H]MK-801 binding relative to 1 mM glycine (NMDAR2C): 0% | NMDAR2D A: % maximal [3H]MK-801 binding relative to 1 mM glycine (NMDAR2D [5]): + (<100%=+) | EC50 (NMDAR2D [6]): < 1 nM | EC50 (NMDAR2B; read-out: NMDAR2B B: log EC50 (converted)): ≥ 1 nM | Emax (NMDAR2B; relative to 1 mM glycine, read-out: NMDAR2B A: % maximal [3H]MK-801 binding relative to 1 mM glycine): < 100% | Plasma (Human): percent of compound remaining (Plasma stability (Human)): 95%
SMILES: O=C1NCC=CC[C@]12CCCN2 [GA, (R)-1,7-diazaspiro[4.6]undec-9-en-6-one]
